{"source": "patent US20030133881A1", "about": "“Formulations for the remineralization of teeth” (priority 2001, published 2003)", "key": {"[1]": {"system": "microflora from primary root carious lesions (PRCL)", "test": "Ozone effect on microflora from primary root caries ex-vivo", "format": "cell-based", "settings": "for Mean ± SE of Total cfu (Log10): After 10 Seconds of Ozone Treatment", "description": "Primary root carious lesions (PRCL) are a major clinical problem. The aim of this study was to establish if ozone could achieve effective microbial killing in PRCL. An ozone producing generator (Purezone Ltd., Ipswich, U.K.) was used in this ex-vivo study assessing the use of ozone on PRCL. In this study, soft PRCL requiring restoration were used as these are the most severe type of lesion found in humans. 20 freshly extracted teeth with PRCL requiring restoration were used. After plaque removal using a hand held standard fine nylon fiber sterile toothbrush with sterile water as a lubricant to cleanse the surface, each tooth was then isolated using sterile cotton wool rolls and dried using a dry sterile cotton wool roll. […] Each sample was weighed and immediately placed in 1 ml of Fastidious Anaerobe Broth (FAB). To each 1 ml of FAB containing a biopsy o carious or ozone treated carious dentine, sterile glass beads were added. They were vortexed for 30 seconds to facilitate the extraction of any micro-organisms from the carious dentine and disperse any aggregates.\nThe procedure of Example 2 was repeated except that ozonized water was applied to the lesion for 20 seconds."}, "[2]": {"system": "Streptococcus sobrinus; TH 21", "test": "Ozone on S. sobrinus on saliva coated glass beads", "settings": "10 seconds of ozone applied to saliva coated glass beads", "procedure": "In study 2, 40 sterile saliva coated glass beads were put into bijoux bottles with 3 mls of Todd Hewitt broth for control and test groups. S. sobrinus and S. mutans were inoculated and incubated anaerobically overnight. Each glass bead was washed with 2 mls of PBS. Immediately, 10 seconds of ozone was applied to the glass beads in the test groups. Subsequently, each glass bead in the test and control groups was placed in 3 mls of Todd Hewitt broth with six more sterile glass beads and were vortexed for 30 seconds. After decimal dilutions, 100 ml aliquots were spread on blood agar plates supplemented with 5% (V/V) horse blood and placed in an anaerobic chamber at 37° C. for two days. The number of each colony type was counted and calculated."}}, "data": [{"smiles": "O=[O+][O-]", "note": "[ozone]", "values": [{"measurement": "percentage of micro-organisms killed", "setting": "[1]; 10 seconds of ozone, PRCL ex-vivo", "value": "more than 99%"}, {"measurement": "Mean ± SE of Total cfu (Log10)", "setting": "[1]; soft PRCL from extracted teeth", "value": "3.57±0.37", "unit": "Log10"}, {"measurement": "Mean ± SE of Total cfu (Log10)", "setting": "[1]; soft PRCL from extracted teeth, listed as Ozone", "value": "3.57 ± 0.37", "unit": "Log10"}, {"measurement": "Total cfu (log10), mean±SE", "setting": "[1]; after 20 seconds of ozone treatment, soft PRCL from extracted teeth", "value": "3.77±0.42", "unit": "log10"}, {"measurement": "colony count (log10), Mean±SE", "setting": "[2]", "value": "1.09±0.36", "unit": "log10"}]}]}
